Assay results taken from patent US20080119456A1, “Substituted Thiazoleacetic Acid as Crth2 Ligands” (priority 2004, published 2008).

Experiments:
human CRTH2 receptor = molecular target: T1, human CRTH2 receptor (Homo sapiens, UniProt Q9Y5Y4, V204A); assay: Receptor binding assay: [3H]PGD2 competition on whole COS-7 cells transfected with CRTH2; settings: 0.1 nM [3H]PGD2, whole cells, 3 h at 4° C.
T1 construct: expressed in transfected cells; host or cells: COS-7 cells, transient, pcDNA3.1(+)
T1 sequence (Q9Y5Y4 1-395 V204A): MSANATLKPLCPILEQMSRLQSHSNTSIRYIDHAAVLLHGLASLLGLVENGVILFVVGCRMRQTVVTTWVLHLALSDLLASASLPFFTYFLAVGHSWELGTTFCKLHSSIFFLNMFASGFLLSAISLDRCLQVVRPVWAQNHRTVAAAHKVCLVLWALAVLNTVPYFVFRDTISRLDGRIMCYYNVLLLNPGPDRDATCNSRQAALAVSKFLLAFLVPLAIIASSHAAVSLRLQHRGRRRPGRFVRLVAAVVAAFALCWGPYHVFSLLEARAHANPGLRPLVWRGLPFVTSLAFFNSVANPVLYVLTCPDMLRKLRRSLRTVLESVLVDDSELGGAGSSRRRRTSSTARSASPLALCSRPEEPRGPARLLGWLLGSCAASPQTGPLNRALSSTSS
Source text: (§1) Generation/origin of the cDNA Constructs. The coding sequence of the human CRTH2 receptor (genbank accession no NM_004778) was amplified by PCR from a human hippocampus cDNA library and inserted into the pcDNA3.1(+) expression vector (invitrogen) via 5′ HindIII and 3′ EcoRI. To generate a CRTH2-Renilla luciferase (CRTH2-Rluc) fusion protein, the CRTH2 coding sequence without a STOP codon and Rluc were amplified, fused in frame by PCR and subcloned into the pcDNA3.1(+)Zeo expression vector (invitrogen). Human β-arrestin2 (β-arr2) N-terminally tagged with GFP^2 (βarr2-GFP^2) and Renilla luciferase were purchased from BioSignal Packard Inc, (Montreal, Canada). The sequence identity of the construct was verified by restriction endonuclease digests and sequencing in both directions on an ABI Prism (Applied Biosystems, Foster City, Calif.).
(§2) Cell Culture and Transfection. COS-7 cells were grown in Dulbecco's modified Eagle's medium (DMEM) 1885 supplemented with 10% fetal bovine serum, 100 units/ml penicillin, […] streptomycin, and kept at 37° C. in a 10% CO2 atmosphere. HEK293 cells were maintained in Minimum Essential medium (MEM) supplemented with 10% (v/v) heat inactivated fetal calf serum (HIFCS), 2 mM Glutamax™-I, 1% non essential amino acids (NEAA), 1% sodium pyruvate and 10 μg/ml gentamicin. For binding experiments, COS7 cells were transiently transfected with the CRTH2 receptor using a calcium phosphate-DNA coprecipitation method with the addition of chloroquine (as described by Hoist et al., 2001*). To perform the functional Bioluminescence Resonance Energy Transfer (BRET) assays, a HEK293 cell clone stably expressing βarr2-GFP^2 and CRTH2-Rluc was generated (CRTH2-HEK293 cells).
Binding assay. 24 h after transfection COS-7 cells were seeded into 96 well plates at a density of 30.000 cells/well. Competition binding experiments on whole cells were then performed about 18-24 h later using 0.1 nM [^3H]PGD2 (NEN, 172 Ci/mmol) in a binding buffer consisting of HBSS (GIBCO) and 10 mM HEPES. Competing ligands were diluted in DMSO which was kept constant at 1% (v/v) of the final incubation volume. Total and nonspecific binding were determined in the absence and presence of 10 μM PGD2. Binding reactions were routinely conducted for 3 h at 4° C. and terminated by 2 washes (100 μl each) with ice cold binding buffer. Radioactivity was determined by liquid scintillation counting in a TOPCOUNTER (Packard) following over night incubation in Microscint 20. Stable HEK293 cells were seeded at a density of 30.000 cells/well 18-24 h prior to the binding assay which was performed essentially as described for COS7 cells above. Determinations were made in duplicates.
(§3) Curve analysis was performed with the GraphPadPrism software 3.0 (Graphpad Prism Inc., San Diego, USA) and IC50 values were calculated as a measure of the antagonistic potencies.

human CRTH2-Rluc = molecular target: T2, human CRTH2-Rluc (Homo sapiens, UniProt Q9Y5Y4, V204A); assay: Functional antagonist BRET assay on HEK293 cells stably expressing CRTH2-Rluc and GFP2-β-arr2; assay type: cell-based; settings: antagonist incubated 15 minutes before agonist, read-out: Antag. IC50
T2 construct: expressed in transfected cells
T2 sequence (Q9Y5Y4 1-395 V204A): T1 sequence (Q9Y5Y4 1-395 V204A)
Source text: as §1, §2
BRET assay. Functional BRET assays were performed on HEK293 cells stably expressing human CRTH2-Rluc and GFP^2-β-arr2. Prior to their use in the BRET assay cells were detached and re-suspended in D-PBS with 1000 mg/L L-Glucose at a density of 2×10^6 cells/mL. DeepBlueC™ was diluted to 50 μM in D-PBS with 1000 mg/L L-Glucose (light sensitive). 100 μL of cell suspension was transferred to wells in a 96-well microplate (white OptiPlate) and placed in the Mithras LB 940 instrument (BERTHOLD TECHNOLOGIES, Bad Wildbad, Germany). 12 μL/well agonist was then injected by injector 1 and 10 μL/well DeepBlueC™ was injected simultaneously by injector 2. Five seconds after the injections the light output from the well was measured sequentially at 400 nm and 515 nm, and the BRET signal (mBRET ratio) was calculated by the ratio of the fluorescence emitted by GFP^2-β-arr2 (515 nm) over the light emitted by the receptor-Rluc (400 nm). Antagonists were added before placing the microplates into the Mithras LB 940 and allowed to incubate for 15 minutes prior to the addition of agonist and DeepBlueC™. Compounds were dissolved in DMSO and the final DMSO concentration was kept constant at 1% in the assay.
as §3

SMILES | IC50 (human CRTH2 receptor) | IC50 (human CRTH2-Rluc)
COc1ccc(C(c2ccc(OC)cc2)c2nc(-c3ccc(F)cc3)c(CC(=O)O)s2)cc1 [Compound A20, [2-[Bis-(4-methoxy-phenyl)-methyl]-4-(4-fluoro-phenyl)-thiazol-5-yl]-acetic acid] | < 500 nM | < 500 nM
O=C(O)Cc1sc(C(c2ccccc2)c2ccccc2)nc1-c1ccc(Oc2ccccc2)cc1 [Compound A21, [2-Benzhydryl-4-(4-phenoxy-phenyl)-thiazol-5-yl]-acetic acid] | < 500 nM | 500 to 5000 nM
O=C(O)Cc1sc(C(c2ccccc2)c2ccc(O)cc2)nc1-c1ccc(F)cc1 (stereo not drawn) [Compound A22, {4-(4-Fluoro-phenyl)-2-[(4-hydroxy-phenyl)-phenyl-methyl]-thiazol-5-yl}-acetic acid] | < 500 nM | < 500 nM
O=C(O)Cc1sc(C(c2ccccc2)c2ccccc2)nc1-c1cccc(F)c1 [Compound A23, [2-Benzhydryl-4-(3-fluoro-phenyl)-thiazol-5-yl]-acetic acid] | < 500 nM | < 500 nM
O=C(O)Cc1sc(C(c2ccccc2)c2ccccc2)nc1-c1ccc(C(F)(F)F)cc1 [Compound A24, [2-Benzhydryl-4-(4-trifluoromethyl-phenyl)-thiazol-5-yl]-acetic acid] | 500 to 5000 nM | > 5000 nM
O=C(O)Cc1sc(C(c2ccc(F)cc2)c2ccc(F)cc2)nc1-c1ccc(F)c(F)c1 [Compound A25, [2-[Bis-(4-fluoro-phenyl)-methyl]-4-(3,4-difluoro-phenyl)-thiazol-5-yl]-acetic acid] | < 500 nM | < 500 nM
O=C(O)Cc1sc(C(c2ccccc2)c2ccccc2)nc1-c1ccc(F)c(F)c1 [Compound A26, [2-Benzhydryl-4-(3,4-difluoro-phenyl)-thiazol-5-yl]-acetic acid] | < 500 nM | < 500 nM
O=C(O)Cc1sc(C(c2ccc(F)cc2)c2ccc(F)cc2)nc1-c1cccc(F)c1 [Compound A27, [2-[Bis-(4-fluoro-phenyl)-methyl]-4-(3-fluoro-phenyl)-thiazol-5-yl]-acetic acid] | < 500 nM | < 500 nM
O=C(O)Cc1sc(C(c2ccccc2)c2ccccn2)nc1-c1ccc(Cl)cc1 (stereo not drawn) [Compound A28, [4-(4-Chloro-phenyl)-2-(phenyl-pyridin-2-yl-methyl)-thiazol-5-yl]-acetic acid] | < 500 nM | 500 to 5000 nM
COc1ccc(C(c2ccccn2)c2nc(-c3ccc(Cl)cc3)c(CC(=O)O)s2)cc1 (stereo not drawn) [Compound A31, {4-(4-Chloro-phenyl)-2-[(4-methoxy-phenyl)-pyridin-2-yl-methyl]-thiazol-5-yl}-acetic acid] | < 500 nM | < 500 nM
O=C(O)Cc1sc(Cc2ccccc2-c2ccccc2)nc1-c1ccc(Cl)cc1 [Compound A34, [2-Biphenyl-2-ylmethyl-4-(4-chloro-phenyl)-thiazol-5-yl]-acetic acid] | < 500 nM | < 500 nM
O=C(O)Cc1sc(Cc2ccccc2-c2ccccc2)nc1-c1ccc(F)cc1 [Compound A36, [2-Biphenyl-2-ylmethyl-4-(4-fluoro-phenyl)-thiazol-5-yl]-acetic acid] | < 500 nM | < 500 nM
COc1cccc(-c2ccccc2Cc2nc(-c3ccc(F)cc3)c(CC(=O)O)s2)c1 [Compound A37, [4-(4-Fluoro-phenyl)-2-(3′-methoxy-biphenyl-2-ylmethyl)-thiazol-5-yl]-acetic acid] | < 500 nM | < 500 nM
N#Cc1ccc(-c2ccccc2Cc2nc(-c3ccc(F)cc3)c(CC(=O)O)s2)cc1 [Compound A38, [2-(4′-Cyano-biphenyl-2-ylmethyl)-4-(4-fluoro-phenyl)-thiazol-5-yl]-acetic acid] | < 500 nM | < 500 nM
COc1ccc(-c2ccccc2Cc2nc(-c3ccc(F)cc3)c(CC(=O)O)s2)cc1 [Compound A40, [4-(4-Fluoro-phenyl)-2-(4′-methoxy-biphenyl-2-ylmethyl)-thiazol-5-yl]-acetic acid] | < 500 nM | < 500 nM
O=C(O)Cc1sc(Cc2ccccc2-c2ccc3c(c2)OCO3)nc1-c1ccc(F)cc1 [Compound A42, [2-(2-Benzo[1,3]dioxol-5-yl-benzyl)-4-(4-fluoro-phenyl)-thiazol-5-yl]-acetic acid] | < 500 nM | < 500 nM
CC(=O)N1CCC(c2ccccc2)(c2nc(-c3ccc(Cl)cc3)c(CC(=O)O)s2)CC1 [Compound A45] | < 500 nM | 500 to 5000 nM
O=C(O)Cc1sc(C2(c3ccccc3)CCNCC2)nc1-c1ccc(Cl)cc1 [Compound A46, [4-(4-Chloro-phenyl)-2-(4-phenyl-piperidin-4-yl)-thiazol-5-yl]-acetic acid] | 500 to 5000 nM | > 5000 nM
